According to ChEMBL document CHEMBL1150081, “Antimicrobial Agents from Tanacetum balsamita” (1995):
≈ marks a conversion by molar mass, not a printed value. Calls of active or inactive are those of the source. The rule behind the calls is not given here.

Experiments:
Streptococcus mutans [1] = assay: Antibacterial activity against Streptococcus mutans ATCC […] after 2 days by broth dilution method; assay type: functional; details: 48 h
[2] = system: Corynebacterium ammoniagenes; assay: Ratio of MBC to MIC for Brevibacterium ammoniagenes ATCC 6872; assay type: functional
Klebsiella aerogenes [3] = assay: Ratio of MBC to MIC for Enterobacter aerogenes ATCC 13048; assay type: functional
Proteus vulgaris [4] = assay: Ratio of MBC to MIC for Proteus vulgaris ATCC 13315; assay type: functional
Staphylococcus aureus [5] = assay: Antibacterial activity against Staphylococcus aureus ATCC 12598 after 2 days by broth dilution method; assay type: functional; details: ATCC 12598, 48 h
Escherichia coli [6] = assay: Ratio of MBC to MIC for Escherichia coli ATCC 9637; assay type: functional
Pseudomonas aeruginosa [7] = assay: Ratio of MBC to MIC for Pseudomonas aeruginosa ATCC 10145; assay type: functional
Malassezia [8] = assay: Antifungal activity against Pityrosporum ovale ATCC 14521 after 3 days by broth dilution method; assay type: functional; details: ATCC 14521, 72 h
Proteus vulgaris [9] = assay: Antibacterial activity against Proteus vulgaris ATCC 13315 after 2 days by broth dilution method; assay type: functional; details: ATCC 13315, 48 h
Escherichia coli [10] = assay: Antibacterial activity against Escherichia coli ATCC 9637 after 2 days by broth dilution method; assay type: functional; details: ATCC 9637, 48 h
Saccharomyces cerevisiae [11] = assay: Antifungal activity against Saccharomyces cerevisiae ATCC 7754 after 2 days by broth dilution method; assay type: functional; details: ATCC 7754, 48 h
[12] = system: Corynebacterium ammoniagenes; assay: Antibacterial activity against Brevibacterium ammoniagenes ATCC 6872 after 2 days by broth dilution method; assay type: functional; details: ATCC 6872, 48 h
Cyberlindnera jadinii [13] = assay: Antifungal activity against Candida utilis ATCC 9226 after 2 days by broth dilution method; assay type: functional; details: Williopsis jadinii, ATCC 9226, 48 h
Staphylococcus aureus [14] = assay: Ratio of MBC to MIC for Staphylococcus aureus ATCC 12598; assay type: functional
Cutibacterium acnes [15] = assay: Antibacterial activity against Propionibacterium acnes ATCC 11827 after 2 days by broth dilution method; assay type: functional; details: ATCC 11827, 48 h
Bacillus subtilis [16] = assay: Antibacterial activity against Bacillus subtilis ATCC 9372 after 2 days by broth dilution method; assay type: functional; details: ATCC 9372, 48 h
Streptococcus mutans [17] = assay: Ratio of MBC to MIC for Streptococcus mutans ATCC […]; assay type: functional
Pseudomonas aeruginosa [18] = assay: Antibacterial activity against Pseudomonas aeruginosa ATCC 10145 after 2 days by broth dilution method; assay type: functional; details: ATCC 10145, 48 h
Cutibacterium acnes [19] = assay: Ratio of MBC to MIC for Propionibacterium acnes ATCC 11827; assay type: functional
Penicillium chrysogenum [20] = assay: Antifungal activity against Penicillium chrysogenum ATCC 10106 after 5 days by broth dilution method; assay type: functional; details: ATCC 10106, 120 h
Klebsiella aerogenes [21] = assay: Antibacterial activity against Enterobacter aerogenes ATCC 13048 after 2 days by broth dilution method; assay type: functional; details: ATCC 13048, 48 h
[22] = system: Trichophyton mentagrophytes; assay: Antifungal activity against Trichophyton mentagrophytes ATCC 18748 after 5 days by broth dilution method; assay type: functional; details: ATCC 18748, 120 h
Proteus vulgaris [23] = assay: Antibacterial activity against Proteus vulgaris ATCC 13315 up to 800 ug/ml after 2 days by broth dilution method; assay type: functional, organism-based
[24] = system: Corynebacterium ammoniagenes; assay: Antibacterial activity against Brevibacterium ammoniagenes ATCC 6872 up to 800 ug/ml after 2 days by broth dilution method; assay type: functional, organism-based
Cyberlindnera jadinii [25] = assay: Antifungal activity against Candida utilis ATCC 9226 up to 800 ug/ml after 2 days by broth dilution method; assay type: functional, organism-based
Pseudomonas aeruginosa [26] = assay: Antibacterial activity against Pseudomonas aeruginosa ATCC 10145 up to 800 ug/ml after 2 days by broth dilution method; assay type: functional, organism-based
Saccharomyces cerevisiae [27] = assay: Antifungal activity against Saccharomyces cerevisiae ATCC 7754 up to 800 ug/ml after 2 days by broth dilution method; assay type: functional, organism-based
Cutibacterium acnes [28] = assay: Antibacterial activity against Propionibacterium acnes ATCC 11827 up to 800 ug/ml after 2 days by broth dilution method; assay type: functional, organism-based
Klebsiella aerogenes [29] = assay: Antibacterial activity against Enterobacter aerogenes ATCC 13048 up to 800 ug/ml after 2 days by broth dilution method; assay type: functional, organism-based
[30] = system: Trichophyton mentagrophytes; assay: Antifungal activity against Trichophyton mentagrophytes ATCC 18748 up to 800 ug/ml after 5 days by broth dilution method; assay type: functional, organism-based
Bacillus subtilis [31] = assay: Antibacterial activity against Bacillus subtilis ATCC 9372 up to 800 ug/ml after 2 days by broth dilution method; assay type: functional, organism-based
Penicillium chrysogenum [32] = assay: Antifungal activity against Penicillium chrysogenum ATCC 10106 up to 800 ug/ml after 5 days by broth dilution method; assay type: functional, organism-based
Staphylococcus aureus [33] = assay: Antibacterial activity against Staphylococcus aureus ATCC 12598 up to 800 ug/ml after 2 days by broth dilution method; assay type: functional, organism-based
Malassezia [34] = assay: Antifungal activity against Pityrosporum ovale ATCC 14521 up to 800 ug/ml after 3 days by broth dilution method; assay type: functional, organism-based
Escherichia coli [35] = assay: Antibacterial activity against Escherichia coli ATCC 9637 up to 800 ug/ml after 2 days by broth dilution method; assay type: functional, organism-based
Streptococcus mutans [36] = assay: Antibacterial activity against Streptococcus mutans ATCC […] up to 800 ug/ml after 2 days by broth dilution method; assay type: functional, organism-based

Row | SMILES | MIC (Streptococcus mutans [1]) | MIC (Staphylococcus aureus [5]) | MIC (Malassezia [8]) | MIC (Proteus vulgaris [9]) | MIC (Escherichia coli [10]) | MIC (Saccharomyces cerevisiae [11]) | MIC [12] | MIC (Cyberlindnera jadinii [13]) | MIC (Cutibacterium acnes [15]) | MIC (Bacillus subtilis [16]) | MIC (Pseudomonas aeruginosa [18]) | MIC (Penicillium chrysogenum [20]) | MIC (Klebsiella aerogenes [21]) | MIC [22] | other results
1 | CCCC/C=C/C=O | 400 µg/mL (≈ 3570 µM) | 400 µg/mL (≈ 3570 µM) | 50 µg/mL (≈ 446 µM) | 100 µg/mL (≈ 891 µM) | 400 µg/mL (≈ 3570 µM) | 100 µg/mL (≈ 891 µM) | 400 µg/mL (≈ 3570 µM) | 100 µg/mL (≈ 891 µM) | 100 µg/mL (≈ 891 µM) | 200 µg/mL (≈ 1780 µM) | 800 µg/mL (≈ 7130 µM) | 50 µg/mL (≈ 446 µM) | 400 µg/mL (≈ 3570 µM) | 25 µg/mL (≈ 223 µM) | Ratio [2]: <=2; Ratio (Klebsiella aerogenes [3]): <=2; Ratio (Proteus vulgaris [4]): <=2; Ratio (Escherichia coli [6]): <=2; Ratio (Pseudomonas aeruginosa [7]): <=2; Ratio (Staphylococcus aureus [14]): <=2; Ratio (Streptococcus mutans [17]): <=2; Ratio (Cutibacterium acnes [19]): <=2
2 | CCCCCCCC(=O)O [OCTANOIC ACID] | 1600 µg/mL (≈ 11100 µM) | 400 µg/mL (≈ 2770 µM) | 200 µg/mL (≈ 1390 µM) | 200 µg/mL (≈ 1390 µM) | > 800 µg/mL | 200 µg/mL (≈ 1390 µM) | 400 µg/mL (≈ 2770 µM) | 200 µg/mL (≈ 1390 µM) | 200 µg/mL (≈ 1390 µM) | 200 µg/mL (≈ 1390 µM) | > 800 µg/mL | 100 µg/mL (≈ 693 µM) | > 800 µg/mL | 50 µg/mL (≈ 347 µM) | –
3 | CCCCC/C=C/C=O | 400 µg/mL (≈ 3170 µM) | 200 µg/mL (≈ 1580 µM) | 25 µg/mL (≈ 198 µM) | 50 µg/mL (≈ 396 µM) | 200 µg/mL (≈ 1580 µM) | 50 µg/mL (≈ 396 µM) | 200 µg/mL (≈ 1580 µM) | 50 µg/mL (≈ 396 µM) | 50 µg/mL (≈ 396 µM) | 100 µg/mL (≈ 792 µM) | > 800 µg/mL | 50 µg/mL (≈ 396 µM) | 200 µg/mL (≈ 1580 µM) | 25 µg/mL (≈ 198 µM) | –
4 | CCCCCCC/C=C/C=O [TRANS-2-DECENAL] | 100 µg/mL (≈ 648 µM) | 25 µg/mL (≈ 162 µM) | 25 µg/mL (≈ 162 µM) | 25 µg/mL (≈ 162 µM) | > 800 µg/mL | 25 µg/mL (≈ 162 µM) | 50 µg/mL (≈ 324 µM) | 25 µg/mL (≈ 162 µM) | 12.5 µg/mL (≈ 81 µM) | 25 µg/mL (≈ 162 µM) | > 800 µg/mL | 12.5 µg/mL (≈ 81 µM) | > 800 µg/mL | 3.13 µg/mL (≈ 20.3 µM) | –
5 | CCCCCC/C=C/C=O [2-NONENAL] | 100 µg/mL (≈ 713 µM) | 50 µg/mL (≈ 357 µM) | 25 µg/mL (≈ 178 µM) | 25 µg/mL (≈ 178 µM) | 200 µg/mL (≈ 1430 µM) | 25 µg/mL (≈ 178 µM) | 100 µg/mL (≈ 713 µM) | 25 µg/mL (≈ 178 µM) | 25 µg/mL (≈ 178 µM) | 50 µg/mL (≈ 357 µM) | > 800 µg/mL | 50 µg/mL (≈ 357 µM) | 200 µg/mL (≈ 1430 µM) | 12.5 µg/mL (≈ 89.1 µM) | –
6 | CCCCCCCC/C=C/C=O | 50 µg/mL (≈ 297 µM) | 12.5 µg/mL (≈ 74.3 µM) | 25 µg/mL (≈ 149 µM) | 12.5 µg/mL (≈ 74.3 µM) | > 800 µg/mL | 25 µg/mL (≈ 149 µM) | 25 µg/mL (≈ 149 µM) | 12.5 µg/mL (≈ 74.3 µM) | 6.25 µg/mL (≈ 37.1 µM) | 25 µg/mL (≈ 149 µM) | > 800 µg/mL | 6.25 µg/mL (≈ 37.1 µM) | > 800 µg/mL | 1.56 µg/mL (≈ 9.27 µM) | –
7 | CCCCCCCCCCCCCCCC(=O)O | – | – | – | – | – | – | – | – | – | – | – | – | – | – | Activity (Proteus vulgaris [23]): inactive; Activity [24]: inactive; Activity (Cyberlindnera jadinii [25]): inactive; Activity (Pseudomonas aeruginosa [26]): inactive; Activity (Saccharomyces cerevisiae [27]): inactive; Activity (Cutibacterium acnes [28]): inactive; Activity (Klebsiella aerogenes [29]): inactive; Activity [30]: inactive; Activity (Bacillus subtilis [31]): inactive; Activity (Penicillium chrysogenum [32]): inactive; Activity (Staphylococcus aureus [33]): inactive; Activity (Malassezia [34]): inactive; Activity (Escherichia coli [35]): inactive; Activity (Streptococcus mutans [36]): inactive
8 | CCCCCC=O [HEXANAL] | > 800 µg/mL | > 800 µg/mL | 800 µg/mL (≈ 7990 µM) | > 800 µg/mL | > 800 µg/mL | > 800 µg/mL | > 800 µg/mL | > 800 µg/mL | 800 µg/mL (≈ 7990 µM) | > 800 µg/mL | > 800 µg/mL | > 800 µg/mL | > 800 µg/mL | > 800 µg/mL | –
9 | CC(C)=CC=O [3-METHYL-(E)-2-BUTENAL] | > 800 µg/mL | > 800 µg/mL | 200 µg/mL (≈ 2380 µM) | 800 µg/mL (≈ 9510 µM) | > 800 µg/mL | 800 µg/mL (≈ 9510 µM) | > 800 µg/mL | 800 µg/mL (≈ 9510 µM) | 800 µg/mL (≈ 9510 µM) | 800 µg/mL (≈ 9510 µM) | > 800 µg/mL | 50 µg/mL (≈ 594 µM) | > 800 µg/mL | 200 µg/mL (≈ 2380 µM) | –
10 | CCCCCC(=O)O [HEXANOATE] | > 800 µg/mL | > 800 µg/mL | 400 µg/mL (≈ 3440 µM) | 400 µg/mL (≈ 3440 µM) | > 800 µg/mL | 400 µg/mL (≈ 3440 µM) | 400 µg/mL (≈ 3440 µM) | 400 µg/mL (≈ 3440 µM) | 400 µg/mL (≈ 3440 µM) | 200 µg/mL (≈ 1720 µM) | > 800 µg/mL | 400 µg/mL (≈ 3440 µM) | > 800 µg/mL | 100 µg/mL (≈ 861 µM) | –
11 | CCCCC/C=C/C=C/C=O | 100 µg/mL (≈ 657 µM) | 50 µg/mL (≈ 328 µM) | 12.5 µg/mL (≈ 82.1 µM) | 25 µg/mL (≈ 164 µM) | > 800 µg/mL | 25 µg/mL (≈ 164 µM) | 100 µg/mL (≈ 657 µM) | 25 µg/mL (≈ 164 µM) | 12.5 µg/mL (≈ 82.1 µM) | 50 µg/mL (≈ 328 µM) | > 800 µg/mL | 12.5 µg/mL (≈ 82.1 µM) | > 800 µg/mL | 1.56 µg/mL (≈ 10.2 µM) | –
